{
  "source": "patent US20190328710A1",
  "about": "“SYNERGISTIC COMPOSITION FOR INHIBITING ADVANCED GLYCATION END PRODUCT CROSSLINKING” (H2 Water Technologies Ltd., priority 2018, published 2019)",
  "origin": "cited, not measured here",
  "tested_on": "patients with cataracts",
  "conditions": "96-patient trial, 6-month trial period",
  "data": [
    {"smiles": "NCCC(=O)N[C@@H](Cc1cnc[nH]1)C(=O)O", "note": "[L-Carnosine]", "values": [
      {"measurement": "success rate in advanced senile cataracts", "setting": "advanced senile cataracts", "result": 80, "unit": "%"},
      {"measurement": "success rate in patients with mild to moderate cataracts", "setting": "mild to moderate cataracts", "result": 100, "unit": "%"}
    ]}
  ]
}
